Data from patent US7390830B1, “Remedies or prophylactics for diseases in association with chemokines” (Teijin Limited, priority 1999, dated 2008).

What was measured:
[1] = target: T1, human MIP-1 α binding to THP-1 cells (Homo sapiens, UniProt P32246); experiment: Inhibitory activity against binding of MIP-1 α to THP-1 cells; conditions: concentration of 2 μM
T1 construct: endogenous in cells; host or cells: THP-1 (whole cells)
T1 sequence (P32246 1-355): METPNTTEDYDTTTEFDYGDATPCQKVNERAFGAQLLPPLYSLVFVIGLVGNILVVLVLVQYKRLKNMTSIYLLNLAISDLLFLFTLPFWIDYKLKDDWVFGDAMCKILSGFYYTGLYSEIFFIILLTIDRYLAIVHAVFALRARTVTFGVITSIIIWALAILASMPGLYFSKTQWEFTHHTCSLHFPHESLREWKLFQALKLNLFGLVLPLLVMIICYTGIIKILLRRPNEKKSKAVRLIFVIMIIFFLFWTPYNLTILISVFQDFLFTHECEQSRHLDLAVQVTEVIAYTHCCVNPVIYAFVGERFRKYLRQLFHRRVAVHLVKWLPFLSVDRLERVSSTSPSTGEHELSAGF
Method: THP-1 cells which are human monocytic leukemia cell line were suspended in an assay buffer [prepared by adding 0.1% of BSA and 25 mM of HEPES to RPMI-1640 (Gibco-BRL Co.) and adjusting the pH to 7.4] so as to provide 1×10^7 cells/mL to thereby afford a cell suspension. A solution obtained by diluting the test compound with the assay buffer was used as a test compound solution. A solution prepared by diluting an iodine-labeled human MIP-1 α (DuPont NEN Co.) with the assay buffer so as to provided 250 nCi/mL was used as a labeled ligand solution. […]
After completing the reaction, the reaction solution was filtered through a filter, and the filter was washed with 200 μL of cold PBS twice (the reaction solution was filtered after adding 200 μL of the cold PBS). The filter was air-dried, and 25 μL of liquid scintillator was then added into each well to count the radioactivity retained by the cells on the filter using TopCount (Packard Instrument Co.).
The count when 100 ng of an unlabeled human MIP-1 α (Peprotech Co.) instead of the test compound was added was subtracted as nonspecific adsorption, and the count when the test compound was not added was taken as 100%. Thereby, the inhibitory activity of the test compound against binding of the human MIP-1 α to THP-1 cells was calculated. […]

[2] = tested on: chronic relapsing experimental allergic encephalomyelitis; experiment: Chronic relapsing experimental allergic encephalomyelitis in mice; format: in vivo, SJL/J×PL/J F1 mice
[3] = tested on: collagen-induced arthritis; experiment: Collagen-induced arthritis in rats; format: in vivo, Lewis female rats; conditions: 300 mg/kg orally every day for 3 weeks, 5, 7, 9, 12 and 14 days after boosting
[4] = tested on: glomerulonephritis induced by anti-glomerular basement membrane serum; experiment: Masugi's nephritis model in WKY rats; format: in vivo
Method: Rabbits were immunized with a trypsin fraction of rat kidney cortex to provide an anti-glomerular basement membrane serum which was intravenously injected to 4-weeks-old female WKY rats (Charles River) in a dose of 2.5 mL/kg body weight to induce glomerulonephritis. After injection of the antiserum, urine of each animal was collected for 24 hours with metabolic cages for rats (Clea Japan, Inc.) on the 1st, 4th, 7th, 10th and 14th days after the injection. The amount of the urine was measured by urine weight and the protein content in the urine was measured by using a kit for assaying proteins in urine and cerebrospinal fluid (Tonein TP-II, Otsuka Pharmaceutical Co., Ltd.) to determine the amount of proteins excreted in urine per day. Serum of the animals subjected to the experiments was collected on the 15th day after injecting the antiserum, and creatinine concentration in blood was measured with a creatinine assay kit (Autosera®), Daiichi Pure Chemicals Co., Ltd.) using a Hitach±7070 model autoanalyzer. The test compound was daily orally administered in a dose of 100 mg/kg body weight twice a day from the date of injecting the anti-glomerular basement membrane serum (about 10:00 a.m. and about 6:00 p.m. in Experiment 1 and about 10:00 a.m. and about 5:00 p.m. in Experiment 2). In the control group, only the solution (a 0.5% aqueous solution of sodium carboxymethylcellulose) was orally administered. The administration volume was 10 mL/kg body weight, and the number of animals (N) was 10.

[5] = target: T2, human MCP-1 binding to THP-1 cells (Homo sapiens, UniProt P41597); experiment: Inhibitory activity against binding of [125I]-labeled human MCP-1 to THP-1 cells (method 1); conditions: concentration of 10 μM
T2 construct: endogenous in cells; host or cells: THP-1 (whole cells)
T2 sequence (P41597 1-360 isoform P41597-2): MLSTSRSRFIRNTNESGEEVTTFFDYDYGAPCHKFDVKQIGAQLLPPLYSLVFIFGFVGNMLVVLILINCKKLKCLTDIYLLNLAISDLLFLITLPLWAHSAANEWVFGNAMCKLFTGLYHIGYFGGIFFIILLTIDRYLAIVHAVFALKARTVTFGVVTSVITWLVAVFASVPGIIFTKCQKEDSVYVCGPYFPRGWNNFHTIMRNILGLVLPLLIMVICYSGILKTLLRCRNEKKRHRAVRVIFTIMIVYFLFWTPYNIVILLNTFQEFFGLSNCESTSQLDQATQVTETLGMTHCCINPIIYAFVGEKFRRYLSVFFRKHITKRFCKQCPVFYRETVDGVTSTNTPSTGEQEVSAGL
From the text: Two kinds of DNA synthetic primers (5′-[…]-3′ (SEQ ID NO:1) and 5′-[…]-3′) (SEQ ID NO:2) having restriction enzyme recognition sites applied on the basis of the known human MCP-1 gene sequence (see, for example, Yoshimura, T. et al. FEBS Letters 1989, 244, 487-493) were used to amplify a cDNA derived from human vascular endothelial cells (purchased from Kurabow) according to a PCR method. The amplified fragment was cleaved with restriction enzymes (PstI and XbaI) and then ligated into a transfer vector pVL1393 (Invitrogen Co.). The resulting vector was co-transfected with an infectious baculovirus into Sf-9 insect cells. […]
After completing the reaction, the reaction solution was filtered through a filter, and the filter was washed with 200 μL of cold PBS twice (the reaction solution was filtered after adding 200 μL of the cold PBS). The filter was air-dried and […] of liquid scintillator was then added into each well to count the radioactivity retained by the cells on the filter using TopCount (Packard Instrument Co.).
The count when 100 ng of the above human MCP-1 expressed with baculovirus (unlabeled) instead of the test compound was added was subtracted as nonspecific adsorption, and the count when the test compound was not added was taken as 100%. Thereby, the inhibitory activity of the test compound against binding of the human MCP-1 to THP-1 cells was calculated. […]

[6] = 300 mg/kg body weight oral, to 21 days after injection of the emulsion
[7] = 300 mg/kg body weight orally, vs control

CCOc1cccc(C(=O)N[C@H](Cc2ccccc2)C(=O)NCC2CCN(Cc3ccc(Cl)cc3)CC2)c1 [Compd. No. 2091, 1-(4-chlorobenzyl)-4-[[N-(3-ethoxybenzoyl)-D-phenylalanyl]aminomethyl]piperidine]
inhibition at 2 µM [1]: 50 to 80%

Nc1cc(F)c(F)cc1C(=O)NCC(=O)NCC1CCN(Cc2ccc(Cl)cc2)CC1 [compound 1245]
Maximal Clinical Score ([2]; 300 mg/kg body weight oral, score 0-5, to 21 days after injection of the emulsion): 2.5 ± 1.5
Duration of Clinical Sign [2, 6]: 5.4 ± 2.4
Incidence (Number of Onset Animals/Number of Immunized Animals) [2, 6]: 17/19
onset date [2, 6]: 13.2 ± 2.4
onset date [2, 7]: delay in onset date (p<0.05)
symptoms (clinical scores) [2, 7]: tendency to inhibit symptoms (no significant difference)
joint swelling (hindlimb footpad volume) [3]: significantly inhibited joint swelling
inhibition of the concentration of urinary proteins ([4]; 4th day after antiserum, 100 mg/kg orally twice a day, vs control): 74%
inhibition of the concentration of urinary proteins ([4]; 7th day after antiserum, 100 mg/kg orally twice a day, vs control): 85%
inhibition of the concentration of urinary proteins ([4]; 10th day after antiserum, 100 mg/kg orally twice a day, vs control): 81%
inhibition of the concentration of urinary proteins ([4]; 14th day after antiserum, 100 mg/kg orally twice a day, vs control): 82%
decrease of creatinine concentration in blood ([4]; 15th day after antiserum, 100 mg/kg orally twice a day, vs control): 10%
Serum Creatinine Concentration on the 15th Day ([4]; WKY rats, Experiment 2, 100 mg/kg body weight orally twice a day, 15th day after injecting anti-glomerular basement membrane serum, mean ± spread): 0.48 ± 0.04 mg/dL

O=C(CNC(=O)c1cccc(C(F)(F)F)c1)NCC1CCN(Cc2cccc(OC(F)(F)F)c2)CC1 [Compd. No. 927, 1-[3-(trifluoromethoxy)benzyl]-4-[(N-(3-(trifluoromethyl)benzoyl)glycyl)aminomethyl]piperidine]
inhibition at 10 µM [5]: 20 to 50%
